Test results: ChEMBL document CHEMBL1909046, “DrugMatrix in vitro pharmacology data”

Experiments:
[1] = biological target: Aldo-keto reductase family 1 member B1 (Rattus norvegicus, UniProt P07943); type: tissue-based, Lens of camera-type eye;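 note: inhibition of aldose reductase enzyme activity, measured with DL-glyceraldehyde as the substrate; in other assays of this panel Not Active means under 50% inhibition at 10 µM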
Substance-P receptor = Substance-P receptor (Homo sapiens, UniProt P25103); type: cell membranes, CHO, Membrane; conditions: cho; note: in other assays of this panel Not Active means under 50% inhibition at 10 µM
Substance-P receptor, sequence (P25103 whole entry): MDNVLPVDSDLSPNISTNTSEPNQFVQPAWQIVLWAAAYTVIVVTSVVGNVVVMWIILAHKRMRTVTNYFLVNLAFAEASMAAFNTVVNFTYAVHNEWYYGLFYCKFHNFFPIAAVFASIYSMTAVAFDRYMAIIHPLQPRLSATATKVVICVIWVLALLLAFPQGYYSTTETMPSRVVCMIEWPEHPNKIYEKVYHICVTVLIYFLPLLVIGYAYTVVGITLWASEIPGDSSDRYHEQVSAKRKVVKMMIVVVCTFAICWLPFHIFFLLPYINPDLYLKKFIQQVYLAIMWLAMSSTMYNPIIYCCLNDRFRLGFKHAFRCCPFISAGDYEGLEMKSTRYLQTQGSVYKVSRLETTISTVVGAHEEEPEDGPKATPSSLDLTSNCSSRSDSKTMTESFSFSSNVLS

[2] = biological target: T1, C-X-C chemokine receptor type 2 (Homo sapiens, UniProt P25025); type: cell membranes, Membrane; conditions: cho-k1; note: in other assays of this panel Not Active means under 50% inhibition at 10 µM
T1 sequence (P25025 whole entry): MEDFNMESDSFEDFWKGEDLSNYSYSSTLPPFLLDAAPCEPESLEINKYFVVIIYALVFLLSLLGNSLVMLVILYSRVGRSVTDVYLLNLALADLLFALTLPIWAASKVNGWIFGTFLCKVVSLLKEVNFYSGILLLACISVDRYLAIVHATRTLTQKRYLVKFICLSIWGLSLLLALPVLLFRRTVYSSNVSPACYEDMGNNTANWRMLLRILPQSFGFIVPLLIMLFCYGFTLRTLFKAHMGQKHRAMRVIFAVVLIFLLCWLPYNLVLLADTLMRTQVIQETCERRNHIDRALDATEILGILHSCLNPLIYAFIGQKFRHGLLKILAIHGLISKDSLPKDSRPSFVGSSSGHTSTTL

D(3) dopamine receptor = D(3) dopamine receptor (Homo sapiens, UniProt P35462); experiment: DRUGMATRIX: Dopamine D3 radioligand binding (ligand: [3H] Spiperone); type: cell membranes, CHO, Membrane; conditions: cho
D(3) dopamine receptor, sequence (P35462 whole entry): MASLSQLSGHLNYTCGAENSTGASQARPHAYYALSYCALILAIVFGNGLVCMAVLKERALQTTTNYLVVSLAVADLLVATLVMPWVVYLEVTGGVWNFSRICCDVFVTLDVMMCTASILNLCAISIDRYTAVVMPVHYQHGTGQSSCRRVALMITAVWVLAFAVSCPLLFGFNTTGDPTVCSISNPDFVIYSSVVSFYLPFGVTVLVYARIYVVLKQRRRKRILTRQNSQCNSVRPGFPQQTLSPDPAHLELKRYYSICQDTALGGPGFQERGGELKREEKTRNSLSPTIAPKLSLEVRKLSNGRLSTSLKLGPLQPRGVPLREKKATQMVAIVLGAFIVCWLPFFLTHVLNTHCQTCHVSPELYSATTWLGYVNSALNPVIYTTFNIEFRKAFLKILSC

[3] = DRUGMATRIX: GABAA, Chloride Channel, TBOB radioligand binding (ligand: [3H] TBOB); type: cell membranes, Rattus norvegicus, Wistar, Cerebral cortex, Membrane; conditions: Not Active = under 50% inhibition at 10 µM
[4] = DRUGMATRIX: Glutamate, NMDA, Agonism radioligand binding (ligand: [3H] CGP-39653); type: cell membranes, Rattus norvegicus, Wistar, Cerebral cortex, Membrane; conditions: Not Active = under 50% inhibition at 10 µM
[5] = DRUGMATRIX: Glutamate, NMDA, Phencyclidine radioligand binding (ligand: [3H] TCP); type: cell membranes, Rattus norvegicus, Wistar, Cerebral cortex, Membrane; conditions: Not Active = under 50% inhibition at 10 µM
Histamine H2 receptor = Histamine H2 receptor (Homo sapiens, UniProt P25021); type: cell membranes, CHO-K1, Membrane; conditions: cho-k1; note: in other assays of this panel Not Active means under 50% inhibition at 10 µM
Histamine H2 receptor, sequence (P25021 whole entry): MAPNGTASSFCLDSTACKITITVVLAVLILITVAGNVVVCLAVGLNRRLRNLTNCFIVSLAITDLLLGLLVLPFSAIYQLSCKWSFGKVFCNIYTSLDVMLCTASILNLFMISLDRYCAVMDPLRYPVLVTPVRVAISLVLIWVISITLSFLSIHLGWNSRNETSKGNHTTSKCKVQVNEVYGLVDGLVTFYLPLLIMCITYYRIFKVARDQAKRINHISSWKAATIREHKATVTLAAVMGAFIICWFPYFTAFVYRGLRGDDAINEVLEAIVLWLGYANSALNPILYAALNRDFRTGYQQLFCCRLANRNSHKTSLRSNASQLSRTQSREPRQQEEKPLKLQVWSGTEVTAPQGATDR

[6] = DRUGMATRIX: Imidazoline I2, Central radioligand binding (ligand: [3H] Idazoxan); type: cell membranes, Rattus norvegicus, Wistar, Cerebral cortex, Membrane; conditions: Not Active = under 50% inhibition at 10 µM
Melanocortin receptor 4 = Melanocortin receptor 4 (Homo sapiens, UniProt P32245); type: cell membranes, Membrane; conditions: hek293; note: in other assays of this panel Not Active means under 50% inhibition at 10 µM
Melanocortin receptor 4, sequence (P32245 whole entry): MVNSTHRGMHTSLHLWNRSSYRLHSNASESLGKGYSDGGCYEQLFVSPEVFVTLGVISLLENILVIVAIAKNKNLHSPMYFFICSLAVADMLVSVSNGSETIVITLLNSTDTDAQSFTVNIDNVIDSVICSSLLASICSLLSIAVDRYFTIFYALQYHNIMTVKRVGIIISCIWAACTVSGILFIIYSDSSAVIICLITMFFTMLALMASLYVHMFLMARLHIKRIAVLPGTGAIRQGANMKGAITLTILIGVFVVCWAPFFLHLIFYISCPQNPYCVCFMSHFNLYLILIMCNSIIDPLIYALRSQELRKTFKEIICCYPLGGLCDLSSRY

[7] = biological target: T2, Neuropeptide Y receptor type 2 (Homo sapiens, UniProt P49146); type: cell membranes, Membrane; conditions: kan-ts; note: in other assays of this panel Not Active means under 50% inhibition at 10 µM
T2 sequence (P49146 whole entry): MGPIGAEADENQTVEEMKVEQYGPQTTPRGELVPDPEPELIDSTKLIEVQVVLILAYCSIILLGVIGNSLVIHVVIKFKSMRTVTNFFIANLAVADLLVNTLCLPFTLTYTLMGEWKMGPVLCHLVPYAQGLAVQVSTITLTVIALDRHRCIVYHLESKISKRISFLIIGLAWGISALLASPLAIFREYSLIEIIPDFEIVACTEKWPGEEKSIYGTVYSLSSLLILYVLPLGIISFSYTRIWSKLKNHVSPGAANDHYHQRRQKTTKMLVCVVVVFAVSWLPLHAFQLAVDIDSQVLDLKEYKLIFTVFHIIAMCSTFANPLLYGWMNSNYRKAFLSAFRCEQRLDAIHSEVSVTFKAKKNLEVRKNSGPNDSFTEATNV

[8] = DRUGMATRIX: Phosphodiesterase PDE3 enzyme inhibition (substrate: [3H]cAMP + cAMP); type: tissue-based, Homo sapiens; conditions: platelet; Not Active = under 50% inhibition at 10 µM
[9] = DRUGMATRIX: Platelet-Derived Growth Factor (PDGF) radioligand binding (ligand: [125I] PDGF); type: cell-based; conditions: nih3t3; Not Active = under 50% inhibition at 10 µM
[10] = biological target: 5-hydroxytryptamine receptor 1B (Rattus norvegicus, UniProt P28564); type: cell membranes, Wistar, Cerebral cortex, Membrane; note: in other assays of this panel Not Active means under 50% inhibition at 10 µM
5-hydroxytryptamine receptor 1B, sequence (P28564 whole entry): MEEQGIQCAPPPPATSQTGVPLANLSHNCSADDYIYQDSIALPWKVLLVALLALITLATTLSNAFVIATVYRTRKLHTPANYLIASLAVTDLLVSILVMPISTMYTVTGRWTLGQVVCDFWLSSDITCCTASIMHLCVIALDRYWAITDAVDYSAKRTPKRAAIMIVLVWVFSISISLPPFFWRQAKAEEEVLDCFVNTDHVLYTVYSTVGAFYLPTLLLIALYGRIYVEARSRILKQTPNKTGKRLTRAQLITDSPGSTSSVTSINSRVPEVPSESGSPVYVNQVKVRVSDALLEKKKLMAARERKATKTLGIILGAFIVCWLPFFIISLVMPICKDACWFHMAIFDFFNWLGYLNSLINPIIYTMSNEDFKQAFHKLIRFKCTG

Adenosine receptor A1 = biological target: T3, Adenosine receptor A1 (Homo sapiens, UniProt P30542); type: cell membranes, CHO, Membrane; conditions: cho
T3 sequence (P30542 whole entry): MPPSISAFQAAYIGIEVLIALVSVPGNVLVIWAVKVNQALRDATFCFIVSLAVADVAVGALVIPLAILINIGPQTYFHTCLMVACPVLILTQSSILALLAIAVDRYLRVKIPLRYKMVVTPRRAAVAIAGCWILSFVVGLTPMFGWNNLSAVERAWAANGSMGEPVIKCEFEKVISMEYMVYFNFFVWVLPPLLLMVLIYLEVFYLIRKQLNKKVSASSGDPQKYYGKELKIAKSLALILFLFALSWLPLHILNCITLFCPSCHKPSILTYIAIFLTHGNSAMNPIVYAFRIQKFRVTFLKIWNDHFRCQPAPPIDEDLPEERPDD

Cytochrome P450 3A4 = Cytochrome P450 3A4 (Homo sapiens, UniProt P08684); conditions: bti-tn-5b1-4; note: in other assays of this panel Not Active means under 50% inhibition at 10 µM
Cytochrome P450 3A4, sequence (P08684 whole entry): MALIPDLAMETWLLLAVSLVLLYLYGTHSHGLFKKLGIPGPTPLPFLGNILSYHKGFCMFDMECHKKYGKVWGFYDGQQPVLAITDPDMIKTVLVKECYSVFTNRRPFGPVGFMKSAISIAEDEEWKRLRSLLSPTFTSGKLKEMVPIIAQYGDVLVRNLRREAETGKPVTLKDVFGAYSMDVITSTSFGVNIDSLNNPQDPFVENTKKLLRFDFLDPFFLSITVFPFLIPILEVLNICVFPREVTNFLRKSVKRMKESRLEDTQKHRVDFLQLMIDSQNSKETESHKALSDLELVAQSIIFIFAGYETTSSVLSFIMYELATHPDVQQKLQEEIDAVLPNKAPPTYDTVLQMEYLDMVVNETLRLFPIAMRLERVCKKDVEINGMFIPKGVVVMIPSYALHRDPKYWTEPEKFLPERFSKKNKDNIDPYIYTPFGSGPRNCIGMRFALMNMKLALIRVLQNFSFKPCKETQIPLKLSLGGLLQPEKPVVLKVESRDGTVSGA

Estrogen receptor = biological target: T4, Estrogen receptor (Homo sapiens, UniProt P03372); conditions: sf9; note: in other assays of this panel Not Active means under 50% inhibition at 10 µM
T4 sequence (P03372 whole entry): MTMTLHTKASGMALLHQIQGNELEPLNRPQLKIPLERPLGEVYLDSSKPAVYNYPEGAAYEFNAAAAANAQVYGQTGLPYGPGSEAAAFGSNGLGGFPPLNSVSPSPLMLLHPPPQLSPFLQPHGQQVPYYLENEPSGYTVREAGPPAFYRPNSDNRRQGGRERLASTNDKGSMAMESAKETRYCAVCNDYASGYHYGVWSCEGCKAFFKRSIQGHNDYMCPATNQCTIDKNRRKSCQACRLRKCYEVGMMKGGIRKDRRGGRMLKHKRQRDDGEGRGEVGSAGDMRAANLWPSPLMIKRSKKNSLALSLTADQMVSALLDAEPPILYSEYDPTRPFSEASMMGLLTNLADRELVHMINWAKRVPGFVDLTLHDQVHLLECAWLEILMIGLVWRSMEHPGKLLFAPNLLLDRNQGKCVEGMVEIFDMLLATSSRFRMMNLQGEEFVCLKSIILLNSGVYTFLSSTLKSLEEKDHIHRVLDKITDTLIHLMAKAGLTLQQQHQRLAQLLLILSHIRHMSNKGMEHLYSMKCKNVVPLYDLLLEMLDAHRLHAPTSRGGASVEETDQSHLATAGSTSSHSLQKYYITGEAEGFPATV

COC1=CC(=O)C[C@@H](C)[C@]12Oc1c(Cl)c(OC)cc(OC)c1C2=O [GRISEOFULVIN]
Not Active: IC50 [1] | IC50 (Substance-P receptor) | IC50 [2] | IC50 (D(3) dopamine receptor) | IC50 [3] | Ki [3] | IC50 [4] | Ki [4] | IC50 [5] | Ki [5] | IC50 (Histamine H2 receptor) | IC50 [6] | Ki [6] | IC50 (Melanocortin receptor 4) | IC50 [7] | IC50 [8] | Ki [8] | IC50 [9] | Ki [9] | IC50 [10] | IC50 (Adenosine receptor A1) | IC50 (Cytochrome P450 3A4) | Ki (Cytochrome P450 3A4) | IC50 (Estrogen receptor)

CARBOPLATIN
Not Active: IC50 [1] | Ki [1] | IC50 (Substance-P receptor) | Ki (Substance-P receptor) | IC50 [2] | Ki [2] | IC50 (D(3) dopamine receptor) | Ki (D(3) dopamine receptor) | IC50 [3] | Ki [3] | IC50 [4] | Ki [4] | IC50 [5] | Ki [5] | IC50 (Histamine H2 receptor) | Ki (Histamine H2 receptor) | IC50 [6] | Ki [6] | IC50 (Melanocortin receptor 4) | Ki (Melanocortin receptor 4) | IC50 [7] | Ki [7] | IC50 [8] | Ki [8] | IC50 [9] | Ki [9] | IC50 [10] | Ki [10] | IC50 (Adenosine receptor A1) | Ki (Adenosine receptor A1) | IC50 (Cytochrome P450 3A4) | Ki (Cytochrome P450 3A4) | IC50 (Estrogen receptor) | Ki (Estrogen receptor)
